# Entries after “also recorded” stand apart in the source; their conditions may differ.
# Key:
# [1] = system: MCF-7 (Breast) (Taxol sensitive); assay: MTT cytotoxicity assay, MCF-7 Taxol sensitive; format: cell-based; settings: Homo sapiens, MCF7, 72 h, 3 days
# Procedure: (§1) Cell cultures and cytotoxicity assays have been carried out. […] Subsequently, 10 μL of MTT reagents is added to each well and incubated at 37° C. for 4 hours followed by the addition of 100 μL solubilization buffer (10% SDS in 0.01 mol/L HCl) and overnight incubation. Absorbance at 585 nm is determined from each well the next day. The percentage of cell viability is calculated using the following formula: Cell viability (%)=Cells number treated/Cells number DMSO control×100. Data are obtained from three independent experiments. The resistant factor is calculated by dividing the IC50 in resistant cells by its IC50 against drug-sensitive cells.
# [2] = system: MCF-7 (Breast) (Taxol resistant); assay: MTT cytotoxicity assay, MCF-7 Taxol resistant; format: cell-based, human; settings: for IC50: Homo sapiens, MCF7, 72 h, MTT, 3 days; for Resistant Factor: IC50 in Taxol resistant MCF-7 divided by IC50 in Taxol sensitive MCF-7
# Procedure: as §1
# [3] = system: A549 (Lung) (Taxol sensitive); assay: MTT cytotoxicity assay, A549 Taxol sensitive; format: cell-based; settings: Homo sapiens, A549, 72 h, 3 days
# Procedure: as §1
# [4] = system: A549 (Lung) (Taxol resistant); assay: MTT cytotoxicity assay, A549 Taxol resistant; format: cell-based, human; settings: for IC50: Homo sapiens, A549, 72 h, MTT, 3 days; for Resistant Factor: IC50 in Taxol resistant A549 divided by IC50 in Taxol sensitive A549
# Procedure: as §1
# [5] = system: HCT-8 (Colon) (Taxol sensitive); assay: MTT cytotoxicity assay, HCT-8 Taxol sensitive; format: cell-based; settings: Homo sapiens, HCT-8, 72 h, 3 days
# Procedure: as §1
# [6] = system: HCT-8 (Colon) (Taxol resistant); assay: MTT cytotoxicity assay, HCT-8 Taxol resistant; format: cell-based, human; settings: for IC50: Homo sapiens, HCT-8, 72 h, MTT, 3 days; for Resistant Factor: IC50 in Taxol resistant HCT-8 divided by IC50 in Taxol sensitive HCT-8
# Procedure: as §1
# [7] = system: MCF-7 (Breast) (Dox sensitive); assay: MTT cytotoxicity assay, MCF-7 Dox sensitive; format: cell-based; settings: Homo sapiens, MCF7, 72 h, 3 days
# Procedure: as §1
# [8] = system: MCF-7 (Breast) (Dox resistant); assay: MTT cytotoxicity assay, MCF-7 Dox resistant; format: cell-based, human; settings: for IC50: Homo sapiens, MCF7, 72 h, MTT, 3 days; for Resistant Factor: IC50 in Dox resistant MCF-7 divided by IC50 in Dox sensitive MCF-7
# Procedure: as §1
# [9] = molecular target: P-glycoprotein (Homo sapiens, UniProt P08183); assay: Rho123 efflux assay in A549 taxol-resistant lung cancer cells; settings: Example 8, 10 μM of each compound, 24 h, then Rho123 1 h
# [10] = system: A549 taxol-resistant lung cancer cells; assay: Annexin V/propidium iodide flow cytometry of cell death, A549 taxol-resistant; format: cell-based, human; settings: 1-10 μM pomiferin with 40 μM taxol, 24 h
# Procedure: (§2) Cell death and viability are measured using an Annexin V staining kit (BD Biosciences, San Jose, Calif., USA). […] Cells were then harvested and analysed by multiparametric flow cytometry using FITC-Annexin V and propidium iodide staining (BD Biosciences, San Jose, Calif., USA) according to the manufacturer's instructions. Flow cytometry has been then carried out using a FACSCalibur flow cytometer (BD Biosciences, San Jose, Calif., USA). […] Data were obtained from three independent experiments.
# [11] = system: HCT-8 taxol-resistant colon cancer cells; assay: Annexin V/propidium iodide flow cytometry of cell death, HCT-8 taxol-resistant; format: cell-based, human; settings: 1-10 μM pomiferin with 40 μM taxol, 24 h
# Procedure: as §2
# [12] = system: P-glycoprotein; assay: Rho123 efflux assay in MCF-7 taxol/doxorubicin-sensitive breast cancer cells; settings: MCF-7 drug-sensitive cells without P-glycoprotein expression; pomiferin 5-20 μM or verapamil 10 μM, 24 h, then Rho123 1 h
# Chain of P-glycoprotein (Homo sapiens, UniProt P08183) (P08183 whole entry): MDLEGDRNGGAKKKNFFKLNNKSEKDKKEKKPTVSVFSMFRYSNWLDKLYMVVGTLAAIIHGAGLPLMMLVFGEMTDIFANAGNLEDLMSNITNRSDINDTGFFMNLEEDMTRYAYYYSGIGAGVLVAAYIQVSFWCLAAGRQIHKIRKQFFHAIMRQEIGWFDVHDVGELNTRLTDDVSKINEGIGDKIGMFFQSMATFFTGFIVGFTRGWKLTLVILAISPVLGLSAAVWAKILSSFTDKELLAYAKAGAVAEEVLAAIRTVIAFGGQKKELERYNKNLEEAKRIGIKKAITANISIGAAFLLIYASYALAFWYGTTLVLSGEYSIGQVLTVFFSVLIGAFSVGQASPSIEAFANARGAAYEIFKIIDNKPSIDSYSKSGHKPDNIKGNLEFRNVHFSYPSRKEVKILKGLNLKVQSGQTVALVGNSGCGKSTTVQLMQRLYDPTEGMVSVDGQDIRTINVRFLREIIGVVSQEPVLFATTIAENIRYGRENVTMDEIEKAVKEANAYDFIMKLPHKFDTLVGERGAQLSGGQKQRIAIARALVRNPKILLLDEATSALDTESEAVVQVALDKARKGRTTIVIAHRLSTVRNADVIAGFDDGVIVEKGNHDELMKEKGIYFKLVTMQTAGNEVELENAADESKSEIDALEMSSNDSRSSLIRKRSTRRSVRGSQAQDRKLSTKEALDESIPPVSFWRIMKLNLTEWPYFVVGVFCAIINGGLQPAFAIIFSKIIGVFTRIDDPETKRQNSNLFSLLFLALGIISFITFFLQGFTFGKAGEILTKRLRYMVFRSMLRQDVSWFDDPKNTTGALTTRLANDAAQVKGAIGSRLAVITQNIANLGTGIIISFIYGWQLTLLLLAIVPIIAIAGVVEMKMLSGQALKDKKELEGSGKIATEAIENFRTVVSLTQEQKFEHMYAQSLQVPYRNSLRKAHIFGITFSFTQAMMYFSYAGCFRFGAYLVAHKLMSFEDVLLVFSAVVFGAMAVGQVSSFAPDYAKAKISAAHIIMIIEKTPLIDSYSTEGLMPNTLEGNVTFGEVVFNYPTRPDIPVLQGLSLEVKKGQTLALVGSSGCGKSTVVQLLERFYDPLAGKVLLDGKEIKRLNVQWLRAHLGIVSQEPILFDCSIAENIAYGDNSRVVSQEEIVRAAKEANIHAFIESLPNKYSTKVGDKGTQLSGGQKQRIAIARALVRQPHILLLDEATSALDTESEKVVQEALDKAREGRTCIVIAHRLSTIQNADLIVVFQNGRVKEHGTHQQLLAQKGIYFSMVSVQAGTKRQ
compound,measurement,setting,value
"CC(=O)O[C@H]1C(=O)[C@@]2(C)[C@H]([C@H](OC(=O)c3ccccc3)[C@]3(O)C[C@H](OC(=O)[C@H](O)[C@@H](NC(=O)c4ccccc4)c4ccccc4)C(C)=C1C3(C)C)[C@]1(OC(C)=O)CO[C@@H]1C[C@@H]2O [Taxol, paclitaxel, reference compound]",IC50,[1],< 0.001 µM
same,IC50,[2],5 µM
same,Resistant Factor,[2],5000×
same,Resistant Factor,[2]; listed as taxol,over 5000 ×
same,IC50,[3],0.0309 µM
same,IC50,[4],31.3 µM
same,Resistant Factor,[4],1012.945×
same,Resistant Factor,[4]; listed as taxol,1000 ×
same,IC50,[5],< 0.001 µM
same,IC50,[6],35.3 µM
same,Resistant Factor,[6],>35300×
same,Resistant Factor,[6]; listed as taxol,35300 ×
"COc1cccc2c1C(=O)c1c(O)c3c(c(O)c1C2=O)C[C@@](O)(C(=O)CO)C[C@@H]3O[C@H]1C[C@H](N)[C@H](O)[C@H](C)O1 [doxorubicin, reference compound]",IC50,[7],0.463 µg/mL
same,IC50,[8],10 µg/mL
same,Resistant Factor,[8],21.6 ×
"CC1(C)C=Cc2c(c3c(c4c(=O)c(-c5ccc(O)cc5)coc24)OC(C)(C)CC3)O1 [isoosajin, 3,4-dihydro-11-(4-hydroxyphenyl)-2,2,6,6-tetramethyl-2H,6H,12H-benzo[1,2-b:3,4-b′:5,6-b″]tripyran-12-one]",P-glycoprotein inhibition (Rho123 accumulation),[9],showed P-glycoprotein inhibition with a different extent; also recorded: comparable effect compared to pomiferin
"CC1(C)C=Cc2c(c3c(c4c(=O)c(-c5ccc(O)c(O)c5)coc24)OC(C)(C)CC3)O1 [isopomiferin, 7,8-dihydro-3-(3,4-dihydroxyphenyl)-6,6,10,10-tetramethyl-4H,6H,10H-benzo[1,2-b:3,4-b′:5,6-b″]tripyran-4-one]",P-glycoprotein inhibition (Rho123 accumulation),[9],showed P-glycoprotein inhibition with a different extent; also recorded: comparable effect compared to pomiferin
COc1ccc(-c2coc3c4c(c(CC=C(C)C)c(O)c3c2=O)OC(C)(C)C=C4)cc1 [osajin 4′-methyl ether],P-glycoprotein inhibition (Rho123 accumulation),[9],showed P-glycoprotein inhibition with a different extent
COc1ccc(C2COc3c4c(c(CC=C(C)C)c(OC)c3C2=O)OC(C)(C)C=C4)cc1OC (stereo not shown) [pomiferin trimethyl ether],P-glycoprotein inhibition (Rho123 accumulation),[9],showed P-glycoprotein inhibition with a different extent
"CC(C)=CCc1c2c(c3occ(-c4ccc(O)c(O)c4)c(=O)c3c1O)C=CC(C)(C)O2 [pomiferin, 3-(3,4-dihydroxyphenyl)-5-hydroxy-8,8-dimethyl-6-(3-methylbut-2-enyl)pyrano[2,3-h] chromen-4-one]",IC50,[7],35.9 µM
same,IC50,[8],15.2 µM
same,Resistant Factor,[8],0.42 ×
same,IC50,[1],35.7 µM
same,IC50,[2],27.1 µM
same,Resistant Factor,[2],0.76 ×
same,Resistant Factor,[2]; listed as Pomiferin,0.76×
same,IC50,[3],18.2 µM
same,IC50,[4],17.2 µM
same,Resistant Factor,[4],0.95 ×
same,Resistant Factor,[4]; listed as Pomiferin,0.95×
same,IC50,[5],25.5 µM
same,IC50,[6],17.6 µM
same,Resistant Factor,[6],0.69 ×
same,Resistant Factor,[6]; listed as Pomiferin,0.69×
same,effect on taxol-mediated cytotoxicity (cell death),[10],significantly enhanced the taxol-mediated cytotoxicity
same,effect on taxol-mediated cytotoxicity (cell death),[11],enhanced taxol-mediated cytotoxicity
same,Rho123 fluorescence signal / accumulation in cells,[12],no difference in fluorescence signal compared with Rho123 stained cells

# Reference: patent publication US9974766B2, “Prenylated isoflavones for treatment of subjects with multidrug-resistant cancer” (Macau University of Science and Technology, priority 2015, dated 2018)
